# Calls of active or inactive are those of the source.
# Tests used:
# Cytochrome P450 2C19 = Cytochrome P450 2C19 (Homo sapiens, UniProt P33261); test: Cytochrome panel assay with activity outcomes. Panel member name: p450-cyp2c19 Compounds with AC50 equal or less than 10 uM are considered active; assay type: functional
# Cytochrome P450 2C9 = Cytochrome P450 2C9 (Homo sapiens, UniProt P11712)
# [1] = viability of uninfected HEp-2 cells – cell-based, HTS, cytotoxicity control for RSV inhibitor project, dose response (AID 2410); assay type: functional; conditions: human respiratory syncytial virus
# [2] = Trypanosoma cruzi growth suppression in host cells – NIH3T3 host cells, beta-gal luminescence, confirmation (AID 2044); assay type: functional, cell-based;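 further: intracellular parasites grown in NIH/3T3 mouse fibroblasts as host cells; luminescent beta-galactosidase reporter signal from transgenic T. cruzi replicating inside host cells; inhibitors lower the luminescence signal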
# [3] = NIH3T3 cell viability loss – ATP luminescence, mouse fibroblasts, counter-screen, dose response (AID 2010); assay type: functional, cell-based;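 further: cells exposed to compound for about 90 hours before reading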
# [4] = Luminescence Cell-Based Dose Retest to Confirm Inhibitors of Cancer Stem Cells. [Related pubchem assays (depositor defined):AID2717, AID2721]; assay type: functional; conditions: Homo sapiens
# H4 = test: Luminescence Cell-Based Dose Response HTS to Identify Activators of 5'UTR Stem-Loop Driven Prion Protein mRNA Translation in H4 Neuroglioblastoma Cells. [Related pubchem assays: 1829 (Project Summary), 1814 (Primary HTS)]; assay type: functional; conditions: Homo sapiens
# [5] = Luminescence Cell-Based Dose Confirmation HTS to Identify Activators of 5'UTR Stem-Loop Driven Alpha-Synuclein mRNA Translation in H4 Neuroglioblastoma Cells. [Related pubchem assays: 1829 (Project Summary), 1814 (Primary HTS)]; assay type: functional
# [6] = Luminescence Cell-Based Dose Response HTS to Identify Activators of Luciferase Translation or Activity in H4 […] Cells. [Related pubchem assays: 1829 (Project Summary), 1814 (Primary HTS)]; assay type: functional
# Cytochrome P450 1A2 = biological target: T1, Cytochrome P450 1A2 (Homo sapiens, UniProt P05177);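 further: PubChem cytochrome P450 panel assay, CYP1A2 panel member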
# T1 sequence (P05177 whole entry): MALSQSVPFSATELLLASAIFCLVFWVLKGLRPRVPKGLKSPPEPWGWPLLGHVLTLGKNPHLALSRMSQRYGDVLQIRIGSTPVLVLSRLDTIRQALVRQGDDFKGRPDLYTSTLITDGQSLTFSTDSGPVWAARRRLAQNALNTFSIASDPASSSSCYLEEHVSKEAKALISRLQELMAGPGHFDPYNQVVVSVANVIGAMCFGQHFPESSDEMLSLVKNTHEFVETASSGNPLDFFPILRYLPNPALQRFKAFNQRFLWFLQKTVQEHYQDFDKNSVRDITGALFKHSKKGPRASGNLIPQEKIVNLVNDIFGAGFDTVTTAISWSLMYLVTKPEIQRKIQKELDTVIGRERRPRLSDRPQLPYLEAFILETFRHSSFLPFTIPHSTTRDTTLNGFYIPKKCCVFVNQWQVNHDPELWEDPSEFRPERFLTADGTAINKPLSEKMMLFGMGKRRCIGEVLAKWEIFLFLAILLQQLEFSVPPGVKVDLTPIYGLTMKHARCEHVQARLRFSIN
# [7] = viability of HCT116 lacking mutant beta-catenin – cell-based, human colon tumor, dose response (AID 1045); assay type: functional;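 further: HCT116 colon tumor cells with beta catenin knocked out; cells exposed to compound for 60 hours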
# [8] = viability of PTEN-deleted HCT116 cells – cell-based, HCT116 PTEN knockout, dose response (AID 1047); assay type: functional;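 further: HCT116 colon tumor cells with PTEN knocked out; cells exposed to compound for 60 hours before readout; potency for loss of cell viability measured by luminescence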
# [9] = Luminescence Cell-Based Dose Response HTS to Identify Inhibitors of 5'UTR Stem-Loop Driven Prion Protein mRNA Translation in H4 Neuroglioblastoma Cells. [Related pubchem assays: 1827 (Project Summary), 1813 (Primary HTS)]; assay type: functional
# [10] = alpha-synuclein stem-loop luciferase translation blockers – H4 neuroglioma cells, luminescence, confirmation (AID 1988); assay type: functional, cell-based
# [11] = luciferase reporter signal suppression in cells – H4 neuroglioma cells, luminescence, dose response (AID 1990); assay type: functional, cell-based
# Cytochrome P450 2C9, sequence (P11712 whole entry): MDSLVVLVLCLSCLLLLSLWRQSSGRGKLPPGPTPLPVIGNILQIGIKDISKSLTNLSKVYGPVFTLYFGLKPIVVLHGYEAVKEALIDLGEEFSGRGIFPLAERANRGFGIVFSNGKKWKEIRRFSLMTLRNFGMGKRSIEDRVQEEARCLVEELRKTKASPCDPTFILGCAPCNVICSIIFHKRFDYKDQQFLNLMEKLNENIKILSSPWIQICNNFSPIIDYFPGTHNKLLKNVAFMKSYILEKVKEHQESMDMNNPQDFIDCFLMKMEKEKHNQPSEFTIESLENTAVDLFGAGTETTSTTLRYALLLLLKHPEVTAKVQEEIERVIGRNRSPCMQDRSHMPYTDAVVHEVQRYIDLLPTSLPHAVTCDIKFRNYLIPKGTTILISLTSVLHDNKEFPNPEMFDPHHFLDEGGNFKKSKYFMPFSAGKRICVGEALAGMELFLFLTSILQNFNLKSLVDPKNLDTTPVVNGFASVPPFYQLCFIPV
# Cytochrome P450 2C19, sequence (P33261 whole entry): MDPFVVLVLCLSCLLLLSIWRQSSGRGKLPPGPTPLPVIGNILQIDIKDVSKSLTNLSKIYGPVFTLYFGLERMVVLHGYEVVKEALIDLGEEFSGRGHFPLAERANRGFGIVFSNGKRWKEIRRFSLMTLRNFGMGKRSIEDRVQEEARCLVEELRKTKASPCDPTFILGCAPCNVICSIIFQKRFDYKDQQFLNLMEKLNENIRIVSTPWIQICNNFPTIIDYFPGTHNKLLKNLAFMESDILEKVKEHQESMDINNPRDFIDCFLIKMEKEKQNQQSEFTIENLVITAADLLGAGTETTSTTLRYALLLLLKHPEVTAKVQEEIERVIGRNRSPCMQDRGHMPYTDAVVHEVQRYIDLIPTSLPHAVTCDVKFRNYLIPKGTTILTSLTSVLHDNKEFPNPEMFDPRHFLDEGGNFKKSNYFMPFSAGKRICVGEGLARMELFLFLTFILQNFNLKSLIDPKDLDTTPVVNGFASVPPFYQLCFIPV
compound,measurement,setting,value
c1cncc(-c2nc(NCc3cccs3)c3ccccc3n2)c1,AC50,Cytochrome P450 2C19; read-out: AC50,5.01 µM (inconclusive)
same,AC50,Cytochrome P450 2C9,1 µM (inconclusive)
Cc1ccccc1Nc1nc(N)nc(-c2oc3ccccc3c2C)n1,CC50,[1],35.4 µM (active)
same,EC50,[2],3.43 µM (active)
same,EC50,[3],> 60 µM (not active)
Cc1ccc(-n2nnnc2SC(C(=O)c2c[nH]c3ccccc23)c2ccccc2)cc1 (centres undefined),AC50,[4],2.14 µM (active)
O=C(Cc1ccc(F)cc1)Nc1nnc(SCC(=O)N2CCCCC2)s1,AC50,[4],24.3 µM (active)
O=C(CN1C(=O)S/C(=C\C=C\c2ccccc2)C1=O)N1CCOCC1,EC50,H4,17.8 µM (active)
same,EC50,[5],12.2 µM (active)
same,EC50,[6],10.3 µM (active)
COc1ccc(OC)c(C(=O)/C=C/c2ccccc2C(F)(F)F)c1,AC50,[4],5.2 µM (active)
Cc1cccc(C(=N)NOC(=O)CCCN2C(=O)c3ccccc3C2=O)c1,AC50,Cytochrome P450 2C19,inconclusive
same,AC50,Cytochrome P450 2C9,3.98 µM (inconclusive)
CC(C)(C)NC(=O)C(c1c[nH]c2ccccc12)N(C(=O)Cn1nnc(-c2ccc(Cl)cc2)n1)c1ccccc1F (centres undefined),CC50,[1],25.8 µM (active)
same,EC50,[2],1.79 µM (active)
same,EC50,[3],> 60 µM (not active)
CC(=O)c1cc2c(s1)-c1cc(F)ccc1OC2,CC50,[1],33.3 µM (active)
Cc1nc2nc(-c3ccc(Cl)cc3)nn2c(C)c1Cl,AC50,Cytochrome P450 2C19; read-out: AC50,39.8 µM (inconclusive)
same,EC50,H4,5.95 µM (active)
same,AC50,Cytochrome P450 2C9,20 µM (inconclusive)
same,EC50,[6],0.454 µM (active)
COCC(=O)Nc1ccc(-c2cn3cccnc3n2)cc1,AC50,Cytochrome P450 2C19; read-out: AC50,3.98 µM (inconclusive)
same,AC50,Cytochrome P450 2C9,6.31 µM (inconclusive)
O=C(OC(C(=O)Nc1ccc(Cl)cc1C(F)(F)F)c1ccccc1)c1c(Cl)cccc1Cl (centres undefined),CC50,[1],22.1 µM (active)
O=C(O)c1ccc(Cn2nnc3sc4c(c3c2=O)CCCC4)cc1,EC50,H4,53.1 µM (active)
same,EC50,[5],13.2 µM (active)
same,EC50,[6],13.2 µM (active)
CC(=O)OC[C@@H]1O[C@H](CCO/N=C(\C)CCC(=O)OC[C@@H]2O[C@H](C#Cc3ccccc3)C=C[C@@H]2Oc2ccc(C)cc2)C=C[C@@H]1OC(C)=O,AC50,Cytochrome P450 2C9,6.31 µM (inconclusive)
Cn1cccc1C(=O)N1CCC2(CC1)CCN(c1ccccn1)CC2,AC50,Cytochrome P450 1A2,15.8 µM (inconclusive)
same,AC50,Cytochrome P450 2C9,31.6 µM (inconclusive)
COc1ccc(-c2sc3ccc(N4CCOCC4)cc3c2C#CC(C)(C)O)cc1,AC50,[4],0.873 µM (active)
CCC(C)(C)n1nnnc1C(c1cc2cc(C)cc(C)c2nc1O)N1CCN(C(=O)c2ccco2)CC1 (centres undefined),EC50,[7],30.2 µM (active)
same,EC50,[8],28.4 µM (active)
Cc1ccccc1S(=O)(=O)N1[C@@H](c2cccc(Cl)c2)C(C(=O)O)=CC[C@H]1c1ccc(Cl)cc1,CC50,[1],15.4 µM (active)
Cc1ccc(Nc2nc(N)nc(CN3CCN(Cc4ccc5c(c4)OCO5)CC3)n2)cc1Cl,EC50,[7],15.9 µM (active)
same,EC50,[8],18 µM (active)
COc1ccc(CCN2C(=S)N(C)C(=O)C2CC(=O)Nc2ccc(OC)cc2)cc1 (centres undefined),AC50,[4],5.5 µM (active)
CCn1c2c(c3ccc(OC)cc31)CCCC2=O,CC50,[1],> 50 µM (active)
CCOC(=O)c1[nH]c2c(c1-c1ccccc1)C(=O)CC(c1ccc(OC)c(OC)c1)C2 (centres undefined),EC50,[7],69.1 µM (active)
same,EC50,[8],54 µM (active)
COc1ccc([N+](=O)[O-])cc1NC(=O)C(C)N(C)Cc1cccc(OC)c1OC (centres undefined),CC50,[1],> 50 µM (active)
O=C(OCCOc1ccccc1)c1[nH]nc2ccccc12,EC50,H4,98.3 µM (inconclusive)
same,EC50,[5],3.16 µM (active)
same,EC50,[6],0.748 µM (active)
O[C@@H]1[C@H](O)[C@H]2[C@@H](O)CCN2C[C@@H]1O,AC50,Cytochrome P450 1A2,31.6 µM (inconclusive)
same,AC50,Cytochrome P450 2C19; read-out: AC50,39.8 µM (inconclusive)
same,AC50,Cytochrome P450 2C9,25.1 µM (inconclusive)
Cc1ccc(N2C(=O)C3C4C=CC(CC4)C3C2=O)cc1Br (centres undefined),AC50,[4],0.678 µM (active)
COc1ccccc1C(=O)Nc1ccc2c(c1)nc(CCNC(=O)c1ccco1)n2C,EC50,H4,> 120 µM (not active)
same,EC50,[5],20.2 µM (active)
same,EC50,[6],81.6 µM (active)
O=C(NC(=S)Nc1ccc(Oc2ccc(Cl)cc2)cc1)c1ccccc1,AC50,Cytochrome P450 2C19; read-out: AC50,7.08 µM (inconclusive)
same,AC50,Cytochrome P450 2C9,2.82 µM (inconclusive)
COc1ccccc1-c1nnc(SCC(=O)Nc2ccccc2)o1,EC50,H4,66.2 µM (inconclusive)
same,EC50,[5],0.382 µM (active)
same,EC50,[6],4.37 µM (inconclusive)
O=C(c1cc(C2CC2)nc2ccc(Br)cc12)N1N=C(C(F)F)CC1(O)C(F)F (centres undefined),EC50,[7],13.9 µM (active)
same,EC50,[8],10.5 µM (active)
COc1ccc(-c2cc(=O)oc3cc(OCC(=O)c4cccc([N+](=O)[O-])c4)ccc23)cc1,EC50,[7],21.8 µM (active)
same,EC50,[8],24.9 µM (active)
Cc1ccc(Nc2[nH]nc(C)c2[N+](=O)[O-])cc1,EC50,H4,0.172 µM (active)
same,EC50,[5],44.9 µM (active)
same,EC50,[6],25.3 µM (active)
Cc1nc2cncnc2n(C2CC2)c1=O,AC50,Cytochrome P450 2C9,7.94 µM (inconclusive)
Cc1cccc(CNc2ccc(C(CC(N)=O)NC(=O)Cc3cccc4ccccc34)cc2[N+](=O)[O-])c1 (centres undefined),AC50,[4],5.85 µM (active)
CCOc1ccccc1NC(=O)c1nnn(-c2ccc3c(c2)OCCO3)c1N,CC50,[1],24.3 µM (active)
CC1(C)Cc2c(c(-c3ccco3)nc3sc4c(NCCN5CCOCC5)ncnc4c23)CO1,EC50,[7],16.2 µM (active)
same,EC50,[8],8.46 µM (active)
Cc1ccc(N=NC2=C(O)OC(C)(C)OC2=O)c(C)c1,EC50,H4,19.1 µM (active)
same,EC50,[5],15 µM (active)
same,EC50,[6],14.7 µM (active)
O=C(NC1CCCC1)c1ccc(CSCc2ccccc2F)o1,EC50,H4,> 120 µM (not active)
same,EC50,[5],> 120 µM (not active)
same,EC50,[6],16.2 µM (active)
OC(COCC1COc2ccccc2O1)CN1CCN(c2ccccc2F)CC1 (centres undefined),AC50,Cytochrome P450 2C9,20 µM (inconclusive)
CCCCn1c(SCC(=O)Nc2cc(NC(=O)c3ccco3)ccc2C)nc2ccccc2c1=O,EC50,[7],19.7 µM (active)
same,EC50,[8],14.4 µM (active)
Cc1nc2c(sc3nc4c(cc32)COC(C)(C)C4)c(=O)n1Cc1ccccc1,EC50,H4,11.6 µM (active)
same,EC50,[5],7.25 µM (active)
same,EC50,[6],7.48 µM (active)
Cc1ncc([N+](=O)[O-])n1CCOC(=O)NC(NCc1ccccc1)C(Cl)(Cl)Cl (centres undefined),AC50,Cytochrome P450 1A2,25.1 µM (inconclusive)
same,AC50,Cytochrome P450 2C19; read-out: AC50,14.1 µM (inconclusive)
same,AC50,Cytochrome P450 2C9,12.6 µM (inconclusive)
O=[N+]([O-])c1nn(-c2ccc3c(c2)OCCO3)[n+]([O-])c1NCCC1=CCCCC1,EC50,H4,77.1 µM (active)
same,EC50,[2],0.574 µM (active)
same,AC50,[4],52.2 µM (active)
same,EC50,[3],> 60 µM (not active)
O=C(NC(=S)N1CCCCC1)c1csc([N+](=O)[O-])c1,EC50,H4,> 120 µM (not active)
same,EC50,[5],14.9 µM (active)
same,EC50,[6],> 120 µM (not active)
C=CCc1c(C)nc2c(OC)cccc2c1Cl,CC50,[1],48.5 µM (active)
CSCC(=O)N1CCC(n2nccc2NC(=O)c2ccc3c(c2)OCO3)CC1,EC50,H4,> 120 µM (not active)
same,EC50,[5],13.6 µM (active)
same,EC50,[6],12.3 µM (active)
Cc1cc(C)c(NC(=O)CSc2nc(COc3ccccc3)nc3ccccc23)c(C)c1,EC50,[9],16.6 µM (active)
same,EC50,[10],> 120 µM (not active)
same,EC50,[11],> 120 µM (not active)
COCCn1c(=O)c(-c2cn(C)c3ccccc23)nc2cncnc21,AC50,Cytochrome P450 2C19; read-out: AC50,25.1 µM (inconclusive)
same,AC50,Cytochrome P450 2C9,10 µM (inconclusive)
CCN1C(=O)[C@H]2[C@@H](c3ccc(-c4ccc(F)cc4)c(OC)c3)N[C@@](CC(C)C)(C(=O)OC)[C@H]2C1=O,EC50,[9],26.4 µM (active)
same,EC50,[10],13.9 µM (active)
same,EC50,[11],17.2 µM (active)
Cc1ccc(C)c(OCCC(=O)N2CCN(S(=O)(=O)c3cc(C)ccc3C)CC2)c1,EC50,[9],> 120 µM (not active)
same,EC50,[10],97 µM (active)
same,CC50,[1],22.3 µM (active)
same,EC50,[11],> 120 µM (not active)
O=C(Nc1ccc(Cn2cccn2)cc1)c1ccc(COc2cccc(Br)c2)cc1,AC50,[4],< 0.16 µM (active)
CN(CC(=O)Nc1ccc(Cl)c(C(F)(F)F)c1)C(=O)Cc1c[nH]c2ccccc12,CC50,[1],16.7 µM (active)
CC(/C=N/NC(=O)c1cc(-c2ccc(C)s2)[nH]n1)=C\c1ccccc1,AC50,[4],0.501 µM (active)
